Experiment in all cases: relative viability (nuclei count vs DMSO), 5 days (fraction); higher = more cells survive
Compound in the assay “Lapatinib + OSI-027”: CS(=O)(=O)CCNCc1ccc(-c2ccc3ncnc(Nc4ccc(OCc5cccc(F)c5)c(Cl)c4)c3c2)o1 [Lapatinib] + COc1cccc2cc(-c3nc([C@H]4CC[C@H](C(=O)O)CC4)n4ncnc(N)c34)[nH]c12 [OSI-027] (partner 0.5 µM)
The procedure, abridged:
(§1)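 Lung cancer cell lines, seeded in 1536-well plates, were treated the following day by pin tool with a single drug or with five library-drug doses (not always all listed) in √10 steps on top of a fixed anchor-drug dose. Cells were fixed and nuclei stained in one step after 5 days, and nuclei were counted. Relative viability is the nuclei count for treated wells divided by that for vehicle wells, reported as medians of duplicate plates.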

Compound in the assay “Lapatinib + Olaparib”: CS(=O)(=O)CCNCc1ccc(-c2ccc3ncnc(Nc4ccc(OCc5cccc(F)c5)c(Cl)c4)c3c2)o1 [Lapatinib] + O=C(c1cc(Cc2n[nH]c(=O)c3ccccc23)ccc1F)N1CCN(C(=O)C2CC2)CC1 [Olaparib] (partner 8 µM)
An outline of the steps: as §1

Compound in the assay “Lapatinib + Alpelisib”: CS(=O)(=O)CCNCc1ccc(-c2ccc3ncnc(Nc4ccc(OCc5cccc(F)c5)c(Cl)c4)c3c2)o1 [Lapatinib] + Cc1nc(NC(=O)N2CCC[C@H]2C(N)=O)sc1-c1ccnc(C(C)(C)C(F)(F)F)c1 [Alpelisib] (partner 2 µM)
An outline of the steps:
as §1

Compound in the assay “Lapatinib + Trametinib”: CS(=O)(=O)CCNCc1ccc(-c2ccc3ncnc(Nc4ccc(OCc5cccc(F)c5)c(Cl)c4)c3c2)o1 [Lapatinib] + CC(=O)Nc1cccc(-n2c(=O)n(C3CC3)c(=O)c3c(Nc4ccc(I)cc4F)n(C)c(=O)c(C)c32)c1 [Trametinib] (partner 0.02 µM)
An outline of the steps:
as §1

As for NCI-H727, the relative viability came out at 0.529 with Lapatinib + OSI-027 (first compound 0.02 µM); 0.557 in the assay with Lapatinib + OSI-027 (first compound 0.2 µM); 0.467 in the assay with Lapatinib + OSI-027 (first compound 0.6325 µM); 0.499 with Lapatinib + OSI-027 (first compound 2 µM); 0.666 with Lapatinib + Olaparib (first compound 0.02 µM); 0.88 with Lapatinib + Olaparib (first compound 0.2 µM). The relative viability was found to be 0.668 with Lapatinib + Olaparib (first compound 0.6325 µM); 0.645 with Lapatinib + Olaparib (first compound 2 µM); 0.515 with Lapatinib + Alpelisib (first compound 0.02 µM); 0.484 with Lapatinib + Alpelisib (first compound 0.06325 µM); 0.472 with Lapatinib + Alpelisib (first compound 0.2 µM); 0.558 in the assay with Lapatinib + Alpelisib (first compound 0.6325 µM). Moreover, the relative viability with Lapatinib + Alpelisib (first compound 2 µM) came out at 0.366; with Lapatinib + Trametinib (first compound 0.02 µM), 0.365; with Lapatinib + Trametinib (first compound 0.2 µM), 0.436; with Lapatinib + Trametinib (first compound 0.6325 µM), 0.382; with Lapatinib + Trametinib (first compound 2 µM) it was 0.363.

Turning to NCI-H650, the relative viability with Lapatinib + OSI-027 (first compound 0.06325 µM) is 0.411; with Lapatinib + OSI-027 (first compound 0.2 µM) it was 0.468; with Lapatinib + OSI-027 (first compound 0.6325 µM) it was 0.505; in the assay with Lapatinib + OSI-027 (first compound 2 µM), 0.543; with Lapatinib + Olaparib (first compound 0.06325 µM) it was 0.355; with Lapatinib + Olaparib (first compound 0.2 µM), 0.372. In addition, the relative viability in the assay with Lapatinib + Olaparib (first compound 0.6325 µM) amounted to 0.397; with Lapatinib + Olaparib (first compound 2 µM), 0.337; with Lapatinib + Alpelisib (first compound 0.06325 µM), 1.04; with Lapatinib + Alpelisib (first compound 0.2 µM), 0.998; in the assay with Lapatinib + Alpelisib (first compound 0.6325 µM), 0.953; with Lapatinib + Alpelisib (first compound 2 µM) it was 1.2. For the same cell line, the relative viability in the assay with Lapatinib + Trametinib (first compound 0.06325 µM) amounted to 0.78; with Lapatinib + Trametinib (first compound 0.2 µM), 0.965; in the assay with Lapatinib + Trametinib (first compound 0.6325 µM), 0.955; in the assay with Lapatinib + Trametinib (first compound 2 µM), 0.927.

For A-427, the relative viability with Lapatinib + OSI-027 (first compound 0.06325 µM) was 0.359; in the assay with Lapatinib + OSI-027 (first compound 0.2 µM) it was 0.516; with Lapatinib + OSI-027 (first compound 0.6325 µM) it was 0.541; with Lapatinib + OSI-027 (first compound 2 µM) it was 0.417; in the assay with Lapatinib + Olaparib (first compound 0.02 µM) it was 0.744; with Lapatinib + Olaparib (first compound 0.06325 µM), 0.733. Also, the relative viability with Lapatinib + Olaparib (first compound 0.2 µM) turned out to be 0.918; with Lapatinib + Olaparib (first compound 0.6325 µM), 0.759; in the assay with Lapatinib + Olaparib (first compound 2 µM), 0.527; in the assay with Lapatinib + Alpelisib (first compound 0.06325 µM) it was 1.04; in the assay with Lapatinib + Alpelisib (first compound 0.2 µM), 1.1; with Lapatinib + Alpelisib (first compound 0.6325 µM), 1.07. The relative viability turned out to be 1.04 with Lapatinib + Alpelisib (first compound 2 µM); 0.724 with Lapatinib + Trametinib (first compound 0.02 µM); 0.631 with Lapatinib + Trametinib (first compound 0.06325 µM); 0.716 in the assay with Lapatinib + Trametinib (first compound 0.2 µM); 0.788 in the assay with Lapatinib + Trametinib (first compound 0.6325 µM); 0.691 with Lapatinib + Trametinib (first compound 2 µM).

As to NCI-H1993, the relative viability is 0.557 with Lapatinib + OSI-027 (first compound 0.02 µM); 0.593 in the assay with Lapatinib + OSI-027 (first compound 0.2 µM); 0.586 in the assay with Lapatinib + OSI-027 (first compound 0.6325 µM); 0.652 with Lapatinib + OSI-027 (first compound 2 µM); 0.961 with Lapatinib + Olaparib (first compound 0.02 µM); 0.901 in the assay with Lapatinib + Olaparib (first compound 0.2 µM). The relative viability with Lapatinib + Olaparib (first compound 0.6325 µM) stood at 0.965; in the assay with Lapatinib + Olaparib (first compound 2 µM), 0.661; with Lapatinib + Alpelisib (first compound 0.02 µM), 0.683; in the assay with Lapatinib + Alpelisib (first compound 0.2 µM) it was 0.721; in the assay with Lapatinib + Alpelisib (first compound 0.6325 µM), 0.684; in the assay with Lapatinib + Alpelisib (first compound 2 µM) it was 0.665. The relative viability with Lapatinib + Trametinib (first compound 0.02 µM) came out at 0.458; with Lapatinib + Trametinib (first compound 0.2 µM), 0.57; with Lapatinib + Trametinib (first compound 0.6325 µM) it was 0.496; with Lapatinib + Trametinib (first compound 2 µM), 0.477.

As to CAL-12T, the relative viability in the assay with Lapatinib + OSI-027 (first compound 0.06325 µM) worked out at 0.32; with Lapatinib + OSI-027 (first compound 0.2 µM), 0.497; with Lapatinib + OSI-027 (first compound 0.6325 µM) it was 0.319; with Lapatinib + OSI-027 (first compound 2 µM) it was 0.313; with Lapatinib + Olaparib (first compound 0.02 µM) it was 0.703; with Lapatinib + Olaparib (first compound 0.06325 µM) it was 0.745. Moreover, the relative viability in the assay with Lapatinib + Olaparib (first compound 0.2 µM) turned out to be 0.71; with Lapatinib + Olaparib (first compound 0.6325 µM), 0.599; with Lapatinib + Olaparib (first compound 2 µM), 0.556; in the assay with Lapatinib + Alpelisib (first compound 0.02 µM) it was 1.05; in the assay with Lapatinib + Alpelisib (first compound 0.06325 µM) it was 1.26; with Lapatinib + Alpelisib (first compound 0.2 µM), 1.25. The relative viability with Lapatinib + Alpelisib (first compound 0.6325 µM) came to 1.13; with Lapatinib + Alpelisib (first compound 2 µM), 0.417; with Lapatinib + Trametinib (first compound 0.02 µM), 0.308; with Lapatinib + Trametinib (first compound 0.06325 µM) it was 0.257; with Lapatinib + Trametinib (first compound 0.2 µM), 0.313; with Lapatinib + Trametinib (first compound 0.6325 µM) it was 0.29. Further, in the assay with Lapatinib + Trametinib (first compound 2 µM), the relative viability amounted to 0.203.

Consider NCI-H441, for which the relative viability worked out at 0.34 in the assay with Lapatinib + OSI-027 (first compound 0.06325 µM); 0.53 in the assay with Lapatinib + OSI-027 (first compound 0.2 µM); 0.559 with Lapatinib + OSI-027 (first compound 0.6325 µM); 0.617 with Lapatinib + OSI-027 (first compound 2 µM); 0.689 in the assay with Lapatinib + Olaparib (first compound 0.02 µM); 0.48 with Lapatinib + Olaparib (first compound 0.2 µM). The relative viability came out at 0.486 with Lapatinib + Olaparib (first compound 0.6325 µM); 0.559 with Lapatinib + Olaparib (first compound 2 µM); 0.65 with Lapatinib + Alpelisib (first compound 0.06325 µM); 0.68 with Lapatinib + Alpelisib (first compound 0.2 µM); 0.617 in the assay with Lapatinib + Alpelisib (first compound 0.6325 µM); 0.799 with Lapatinib + Alpelisib (first compound 2 µM). Besides, the relative viability came to 0.429 with Lapatinib + Trametinib (first compound 0.02 µM), 0.398 in the assay with Lapatinib + Trametinib (first compound 0.2 µM), 0.392 with Lapatinib + Trametinib (first compound 0.6325 µM) and 0.417 with Lapatinib + Trametinib (first compound 2 µM).

For the origin of these results see the supplement of paper PMC10307832.
